Common to all, as to experiment: Greenhouse herbicidal post-emergence test
The subject of test [1] is AMARE. The test is classed as in vivo, velvet leaf. To be noted: application rate 31.3 g/ha. An excerpt: (§1) The culture containers used were plastic pots containing loamy sand with approximately 3.0% of humus as the substrate. The seeds of the test plants were sown separately for each species. For the post-emergence treatment, the test plants were first grown to a height of 3 to 15 cm, depending on the plant form, and only then treated with the active compounds which had been suspended or emulsified in water. For this purpose, the test plants were either sown directly and grown in the same containers, or they were first grown separately as seedlings and transplanted into the test containers a few days prior to treatment. The application rate for the post-emergence treatment was 31.3 g of a.s./ha. Depending on the species, the plants were kept at 10-25° C. or 20-35° C. The test period extended over 2 to 4 weeks. During this time, the plants were tended, and their response to the individual treatments was evaluated. The evaluation was carried out using a scale from 0 to 100. 100 means no emergence of the plants, or complete destruction of at least the above-ground parts, and 0 means no damage, or normal course of growth. The plants used in the greenhouse experiments were composed of the following species: [table]

For test [2], the system named is CHEAL. In kind it is in vivo, lamb's-quarters. To be noted: application rate 31.3 g/ha.
Description: as §1

The subject of test [3] is BRAPL. In kind it is in vivo, marmalade grass.
Description: as §1, with “The application rate for the post-emergence treatment was 31.3 g of a.s./ha.” left out

Test [4] concerns SETFA. In kind it is in vivo, giant foxtail.
Description: as §1, with “The application rate for the post-emergence treatment was 31.3 g of a.s./ha.” left out

As for `Cn1nc(-c2c(F)cc(Cl)c(N)c2Br)c(Cl)c1OC(F)F` [IVa.1, 2-bromo-4-fluoro-6-chloro-3-(4-chloro-5-difluoromethoxy-1-methyl-1H-pyrazol-3-yl)aniline], in test [1], the “herbicidal post-emergence activity against AMARE” value is on record as “very good”. Moreover, the “herbicidal post-emergence activity against CHEAL” value in test [2] is reported as “very good”. Also, the “herbicidal post-emergence activity against BRAPL” value in test [3] (application rate 15.6 g/ha) and in test [3] (application rate 31.3 g/ha) was “very good” in each case. The “herbicidal post-emergence activity against SETFA” value is “very good to good” in test [4] (application rate 15.6 g/ha) and “very good” in test [4] (application rate 31.3 g/ha).

Values taken from patent US6888003B2, “Method for producing 7-(pyrazole-3-yl) benzoxazoles” (BASF Aktiengesellschaft, priority 2000, dated 2005).
